Measurements taken from patent publication US9655980B2, “Theranostic platform for targeted cancer therapy and drug delivery monitoring” (University of Pittsburgh—Of the Commonwealth System of …, priority 2012, dated 2017).
Several values for one entry are separate records, joined by “and”; a condition that tells them apart may be missing. Equal values may be shown once.

Key:
[1] = Solubility / hydrophilicity observations; type: physicochemical; details: for hydrophilicity: as sodium salts
Excerpt: The most challenging step encountered during the synthesis of QR-G1-COOH and QR-G2-COOH was the ring cyclization of biperylene 6. Many quaterrylenes reported were synthesized through a base-assisted cyclodehydrogenation reaction using molten KOH/glucose, tert-BuOK/DBN in diglyme, or K2CO3 in ethanolamine. However, these reaction systems are not applicable for the synthesis of quaterrylene 7 because of the high reactivity of aldehyde under the harsh basic conditions. Recently, Müllen's group reported milder conditions for the preparation of uaterrylenedicarboximides and rylenediimides by the Lewis acids FeCl3/CH3NO2 and AlCl3/chlorobenzene. […] The following reduction of aldehyde groups on 7 by NaBH4 yielded benzyl alcohol 8 with a relatively low yield (32%). Coupling quaterrylene 8 with dendrons 9 and 10 provided the dendrimers QR-G1-triester and QR-G2-triester in 35% and 28% yields after purification by column chromatography.

[2] = tested on: wild-type mouse malignant astrocytoma DBT (wt-DBT) cells; test: In vitro cytotoxicity, hemocytometer-based trypan blue dye exclusion; type: cell-based; details: for cell viability: 2×10^−7 and 1×10^−5 M, 48 h
Excerpt: FIG. 4 is a graph showing the results cell viability tests of QR-G1-COOH and QR-G2-COOH on the wt-DBT cell line. Values are presented as mean±standard deviation.
The in vitro cytotoxicity of QR-G1-COOH and QR-G2-COOH against wild-type mouse malignant astrocytoma DBT (wt-DBT) cells was investigated using a hemocytometer-based trypan blue dye exclusion method.

[3] = Photostability: NIR absorbance under ambient light; type: physicochemical; details: for decrease of absorbance after exposure to ambient light: 2 hours, absorption maximum wavelength; for NIR absorbance remaining: 31 days ambient light; for photostability compared with ICG: ambient light
Procedure: FIG. 3 is a graph showing the photostability of QR-G1-COOH, QR-G2-COOH and ICG in DMSO. Samples were exposed to the ambient light and the change of optical density at absorption maximum wavelength was monitored over time. All samples have the initial absorbance of about 1.2 at the absorption maximum wavelength. The signals were normalized against the values at 0 hour.
To evaluate the photostability of QR-G1-COOH and QR-G2-COOH, the NIR absorbance of these molecules exposed to ambient light was monitored and the results were compared with that of the FDA approved NIR dye, indocyanine green (ICG).

[4] = UV-vis absorption and emission spectra (photophysical properties); type: physicochemical
Excerpt: FIG. […]
Similar observations have been reported on extended perylenediimides. […] This fluorescence enhancement in pluronic compared to water can be explained by the disruption of the non-fluorescent dye aggregates by pluronic, which formed micelles with dye monomers inside. The strong absorption in the NIR region and weak emission may render QR-G1-COOH to a promising photoacoustic imaging agent.

[5] = as above; type: physicochemical; details: DMSO; for Fluorescence quantum yield Φ: ICG in methanol as standard

Compound	hydrophilicity [1]	decrease of absorbance after exposure to ambient light ([3]; DMSO)	absorbance change after illumination ([3]; DMSO, 3 days ambient light) [%]	NIR absorbance remaining ([3]; DMSO) [%]	photostability compared with ICG [3]	λem ([4]; methanol, excited at 720 nm) [nm]	ε ([4]; water)	λabs ([4]; water) [nm]	λem [5] [nm]	Fluorescence quantum yield Φ [5] [%]	cytotoxicity to DBT cells [2]	cell viability ([2]; wt-DBT cells)	ε (molar extinction coefficient) ([4]; methanol)	further results
CC(C)c1cccc(C(C)C)c1N1C(=O)c2cc(Oc3ccc(COC(=O)CCC(=O)NC(CCC(=O)OC(C)(C)C)(CCC(=O)OC(C)(C)C)CCC(=O)OC(C)(C)C)cc3)c3c4ccc5c6ccc7c8c(Oc9ccc(COC(=O)CCC(=O)NC(CCC(=O)OC(C)(C)C)(CCC(=O)OC(C)(C)C)CCC(=O)OC(C)(C)C)cc9)cc9c%10c(cc(Oc%11ccc(COC(=O)CCC(=O)NC(CCC(=O)OC(C)(C)C)(CCC(=O)OC(C)(C)C)CCC(=O)OC(C)(C)C)cc%11)c(c%11ccc(c%12ccc(c%13c(Oc%14ccc(COC(=O)CCC(=O)NC(CCC(=O)OC(C)(C)C)(CCC(=O)OC(C)(C)C)CCC(=O)OC(C)(C)C)cc%14)cc(c2c3%13)C1=O)c4c5%12)c6c7%11)c%108)C(=O)N(c1c(C(C)C)cccc1C(C)C)C9=O [QR-G1-triester]														solubility in organic solvents ([1]; toluene, dichloromethane, chloroform, ethyl acetate, methanol): highly soluble
C[S+](C)[O-] [DMSO, reference compound]														live cells (positive control group) ([2]; wt-DBT cells, 5% DMSO, after 48 h): 66.9%
CC1(C)C(/C=C/C=C/C=C/C=C2\N(CCCCS(=O)(=O)O)c3ccc4ccccc4c3C2(C)C)=[N+](CCCCS(=O)(=O)[O-])c2ccc3ccccc3c21 [ICG, indocyanine green, reference compound]		48%												absorbance observed after illumination ([3]; DMSO, 3 days ambient light): no significant absorbance

Further lines, with some results ahead:

hydrophilicity [1]	decrease of absorbance after exposure to ambient light ([3]; DMSO)	absorbance change after illumination ([3]; DMSO, 3 days ambient light) [%]	NIR absorbance remaining ([3]; DMSO) [%]	photostability compared with ICG [3]	λem ([4]; methanol, excited at 720 nm) [nm]	ε ([4]; water)	λabs ([4]; water) [nm]	λem [5] [nm]	Fluorescence quantum yield Φ [5] [%]	Compound	cytotoxicity to DBT cells [2]	cell viability ([2]; wt-DBT cells)	ε (molar extinction coefficient) ([4]; methanol)	further results
high hydrophilicity	no significant absorbance change	3	77	dramatically more photostable than ICG	815	0.56 10^5 M^−1 cm^−1	743	816	0.32	CC(C)c1cccc(C(C)C)c1N1C(=O)c2cc(Oc3ccc(COC(=O)CCC(=O)NC(CCC(=O)NC(CCC(=O)O)(CCC(=O)O)CCC(=O)O)(CCC(=O)NC(CCC(=O)O)(CCC(=O)O)CCC(=O)O)CCC(=O)NC(CCC(=O)O)(CCC(=O)O)CCC(=O)O)cc3)c3c4ccc5c6ccc7c8c(Oc9ccc(COC(=O)CCC(=O)NC(CCC(=O)NC(CCC(=O)O)(CCC(=O)O)CCC(=O)O)(CCC(=O)NC(CCC(=O)O)(CCC(=O)O)CCC(=O)O)CCC(=O)NC(CCC(=O)O)(CCC(=O)O)CCC(=O)O)cc9)cc9c%10c(cc(Oc%11ccc(COC(=O)CCC(=O)NC(CCC(=O)NC(CCC(=O)O)(CCC(=O)O)CCC(=O)O)(CCC(=O)NC(CCC(=O)O)(CCC(=O)O)CCC(=O)O)CCC(=O)NC(CCC(=O)O)(CCC(=O)O)CCC(=O)O)cc%11)c(c%11ccc(c%12ccc(c%13c(Oc%14ccc(COC(=O)CCC(=O)NC(CCC(=O)NC(CCC(=O)O)(CCC(=O)O)CCC(=O)O)(CCC(=O)NC(CCC(=O)O)(CCC(=O)O)CCC(=O)O)CCC(=O)NC(CCC(=O)O)(CCC(=O)O)CCC(=O)O)cc%14)cc(c2c3%13)C1=O)c4c5%12)c6c7%11)c%108)C(=O)N(c1c(C(C)C)cccc1C(C)C)C9=O [QR-G2-COOH]	low cytotoxicity	about 90%	121000 M⁻¹ cm⁻¹	quantum yield relative to QR-G1-COOH ([4]; Table 1): roughly two times higher; ε ([4]; methanol, values in order of the listed absorption bands): 1.21 10^5 M^−1 cm^−1; λem ([4]; water, pluronic ~10 wt %/wt): 809 nm
high hydrophilicity	no significant absorbance change	1	85	dramatically more photostable than ICG	813	0.74 10^5 M^−1 cm^−1	739	816	0.11	CC(C)c1cccc(C(C)C)c1N1C(=O)c2cc(Oc3ccc(COC(=O)CCC(=O)NC(CCC(=O)O)(CCC(=O)O)CCC(=O)O)cc3)c3c4ccc5c6ccc7c8c(Oc9ccc(COC(=O)CCC(=O)NC(CCC(=O)O)(CCC(=O)O)CCC(=O)O)cc9)cc9c%10c(cc(Oc%11ccc(COC(=O)CCC(=O)NC(CCC(=O)O)(CCC(=O)O)CCC(=O)O)cc%11)c(c%11ccc(c%12ccc(c%13c(Oc%14ccc(COC(=O)CCC(=O)NC(CCC(=O)O)(CCC(=O)O)CCC(=O)O)cc%14)cc(c2c3%13)C1=O)c4c5%12)c6c7%11)c%108)C(=O)N(c1c(C(C)C)cccc1C(C)C)C9=O [QR-G1-COOH]	low cytotoxicity	about 90%	146000 M⁻¹ cm⁻¹ and 143000 M⁻¹ cm⁻¹	fluorescence in pluronic compared to water ([4]; 0.4% wt/wt of pluronic): large fluorescence enhancement; λabs ([4]; methanol): 771 nm and 728 nm; λem ([4]; water, pluronic ~0.4 wt %/wt): 807 nm; fluorescence in water ([4]; water, excited at 720 nm): nearly no fluorescence
